Measured values as given in ChEMBL document CHEMBL4321806 (J Med Chem, 2019).

Tested on: NIH3T3
Test: Cytotoxicity against mouse 3T3 cells assessed as reduction in cell viability
Assay type: cell-based

| Compound | IC50 [µM] |
| --- | --- |
| COc1ccc2c3c([nH]c2c1)[C@H](CC(C)C)N1C(=O)[C@H](CCC(=O)OC(C)(C)C)NC(=O)[C@@H]1C3 | > 100 |
| COC(=O)c1cccc(COc2c(-c3ccc(OCCOCCn4cc(CN(Cc5cn(CCOCCOc6ccc(-c7oc8ccccc8c(=O)c7OCc7cccc(C(=O)OC)c7)cc6)nn5)c5ccccc5)nn4)cc3)oc3ccccc3c2=O)c1 | > 100 |
| COC(=O)c1cccc(COc2c(-c3ccc(OCCOCCOCCn4cc(CN(Cc5cn(CCOCCOCCOc6ccc(-c7oc8ccccc8c(=O)c7OCc7cccc(C(=O)OC)c7)cc6)nn5)c5ccccc5)nn4)cc3)oc3ccccc3c2=O)c1 | > 100 |

Tested on: HFF-1
Test: Cytotoxicity against human HFF1 cells assessed as reduction in cell viability
Assay type: cell-based

| Compound | IC50 [µM] |
| --- | --- |
| COc1ccc2c3c([nH]c2c1)[C@H](CC(C)C)N1C(=O)[C@H](CCC(=O)OC(C)(C)C)NC(=O)[C@@H]1C3 | 56.5 |
| COC(=O)c1cccc(COc2c(-c3ccc(OCCOCCn4cc(CN(Cc5cn(CCOCCOc6ccc(-c7oc8ccccc8c(=O)c7OCc7cccc(C(=O)OC)c7)cc6)nn5)c5ccccc5)nn4)cc3)oc3ccccc3c2=O)c1 | > 100 |
| COC(=O)c1cccc(COc2c(-c3ccc(OCCOCCOCCn4cc(CN(Cc5cn(CCOCCOCCOc6ccc(-c7oc8ccccc8c(=O)c7OCc7cccc(C(=O)OC)c7)cc6)nn5)c5ccccc5)nn4)cc3)oc3ccccc3c2=O)c1 | > 100 |

Tested on: not listed separately
Test: Cytotoxicity against mouse L929 cells assessed as reduction in cell viability

| Compound | IC50 [µM] |
| --- | --- |
| O=c1cc(-c2ccc(OCCOCCn3cc(CN(Cc4ccccc4)Cc4cn(CCOCCOc5ccc(-c6cc(=O)c7ccccc7o6)cc5)nn4)nn3)cc2)oc2ccccc12 | > 100 |
| O=c1cc(-c2ccccc2)oc2cc(OCCOCCn3cc(COCCOc4ccc5c(=O)cc(-c6ccccc6)oc5c4)nn3)ccc12 | > 100 |
| Cc1ccc2oc(-c3ccc(OCCCCc4cn(CCOc5ccc6c(=O)cc(-c7ccccc7)oc6c5)nn4)cc3)cc(=O)c2c1 | 9.2 |
| COc1ccc2c3c([nH]c2c1)[C@H](CC(C)C)N1C(=O)[C@H](CCC(=O)OC(C)(C)C)NC(=O)[C@@H]1C3 | 31.4 |
| O=c1cc(-c2ccc(OCCOCCOCCn3cc(COCCOc4ccc5c(=O)cc(-c6ccccc6)oc5c4)nn3)cc2)oc2ccccc12 | 22 |
| O=c1cc(-c2ccccc2)oc2cc(OCCN(Cc3ccccc3)Cc3cn(CCOc4ccc5c(=O)cc(-c6ccccc6)oc5c4)nn3)ccc12 | > 100 |
| O=c1cc(-c2ccccc2)oc2cc(OCCOCCOCCn3cc(COCCOc4ccc5c(=O)cc(-c6ccccc6)oc5c4)nn3)ccc12 | 12.1 |
| COC(=O)c1cccc(COc2c(-c3ccc(OCCOCCOCCn4cc(CCCCOc5ccc(-c6cc(=O)c7cc(C)ccc7o6)cc5)nn4)cc3)oc3ccccc3c2=O)c1 | > 100 |
| Cc1ccc2oc(-c3ccc(OCCCCc4cn(CCOCCOc5ccc(-c6oc7ccccc7c(=O)c6OCc6ccccc6)cc5)nn4)cc3)cc(=O)c2c1 | > 100 |
| Cc1ccc2oc(-c3ccc(OCCCCc4cn(CCN(CCOc5ccc(-c6cc(=O)c7ccccc7o6)cc5)Cc5ccccc5)nn4)cc3)cc(=O)c2c1 | > 100 |
| O=c1c(OCc2ccccc2)c(-c2ccc(OCCOCCOCCn3cc(CN(Cc4ccccc4)Cc4cn(CCOCCOCCOc5ccc(-c6oc7ccccc7c(=O)c6OCc6ccccc6)cc5)nn4)nn3)cc2)oc2ccccc12 | > 100 |
| COC(=O)c1cccc(COc2c(-c3ccc(OCCOCCn4cc(CN(Cc5cn(CCOCCOc6ccc(-c7oc8ccccc8c(=O)c7OCc7cccc(C(=O)OC)c7)cc6)nn5)c5ccccc5)nn4)cc3)oc3ccccc3c2=O)c1 | > 100 |
| O=c1cc(-c2ccccc2)oc2cc(OCCN(Cc3ccccc3)Cc3cn(CCOCCOCCOc4ccc(-c5oc6ccccc6c(=O)c5OCc5ccccc5)cc4)nn3)ccc12 | > 100 |
| COC(=O)c1cccc(COc2c(-c3ccc(OCCOCCOCCn4cc(CCCOc5ccc6c(=O)cc(-c7ccccc7)oc6c5)nn4)cc3)oc3ccccc3c2=O)c1 | > 100 |
| COC(=O)c1cccc(COc2c(-c3ccc(OCCOCCOCCn4cc(CN(Cc5cn(CCOCCOCCOc6ccc(-c7oc8ccccc8c(=O)c7OCc7cccc(C(=O)OC)c7)cc6)nn5)c5ccccc5)nn4)cc3)oc3ccccc3c2=O)c1 | > 100 |
| O=c1cc(-c2ccc(OCCCc3cn(CCOCCOCCOc4ccc(-c5oc6ccccc6c(=O)c5OCc5ccccc5)cc4)nn3)cc2)oc2cc(F)ccc12 | > 100 |
| COC(=O)c1cccc(COc2c(-c3ccc(OCCOCCn4cc(CN5CCCN(Cc6cn(CCOCCOc7ccc(-c8oc9ccccc9c(=O)c8OCc8cccc(C(=O)OC)c8)cc7)nn6)CC5)nn4)cc3)oc3ccccc3c2=O)c1 | > 100 |
| COC(=O)c1cccc(COc2c(-c3ccc(OCCOCCn4cc(CCCCOc5ccc(-c6cc(=O)c7cc(C)ccc7o6)cc5)nn4)cc3)oc3ccccc3c2=O)c1 | > 100 |
| O=c1cc(-c2ccccc2)oc2cc(OCCOCc3cn(CCOCCOCCOc4ccc(-c5cc(=O)c6cc(F)ccc6o5)cc4)nn3)ccc12 | > 50 |
| Cc1ccc2oc(-c3ccc(OCCOCCOCCn4cc(CCCOc5ccc6c(=O)cc(-c7ccccc7)oc6c5)nn4)cc3)cc(=O)c2c1 | > 50 |

| Compound | IC50 [µM] |
| --- | --- |
| O=c1cc(-c2ccccc2)oc2cc(OCCCc3cn(CCOCCOCCOc4ccc(-c5oc6ccccc6c(=O)c5OCc5ccccc5)cc4)nn3)ccc12 | > 100 |
| O=c1cc(-c2ccccc2)oc2cc(OCCOCCn3cc(CN(Cc4ccccc4)Cc4cn(CCOCCOc5ccc6c(=O)cc(-c7ccccc7)oc6c5)nn4)nn3)ccc12 | > 100 |
| O=c1cc(-c2ccc(OCCCc3cn(CCOCCOCCOc4ccc5c(=O)cc(-c6ccccc6)oc5c4)nn3)cc2)oc2cc(F)ccc12 | > 100 |
| O=c1cc(-c2ccccc2)oc2cc(OCCCCc3cn(CCOCCOCCOc4ccc(-c5oc6ccccc6c(=O)c5OCc5ccccc5)cc4)nn3)ccc12 | > 100 |
| O=c1cc(-c2ccc(OCCOCCOCCn3cc(CCCCOc4ccc5c(=O)cc(-c6ccccc6)oc5c4)nn3)cc2)oc2ccccc12 | > 50 |
| O=c1cc(-c2ccc(OCCOCCOCCn3cc(CCCOc4ccc5c(=O)cc(-c6ccccc6)oc5c4)nn3)cc2)oc2ccccc12 | 12 |
| O=c1cc(-c2ccccc2)oc2cc(OCCOCc3cn(CCOCCOc4ccc(-c5oc6ccccc6c(=O)c5OCc5ccccc5)cc4)nn3)ccc12 | > 100 |
| COC(=O)c1cccc(COc2c(-c3ccc(OCCOCCn4cc(CN(Cc5ccncc5)Cc5cn(CCOCCOc6ccc(-c7oc8ccccc8c(=O)c7OCc7cccc(C(=O)OC)c7)cc6)nn5)nn4)cc3)oc3ccccc3c2=O)c1 | > 50 |
| Cc1ccc2oc(-c3ccc(OCCOCCOCCn4cc(COCCOc5ccc6c(=O)cc(-c7ccccc7)oc6c5)nn4)cc3)cc(=O)c2c1 | > 100 |
| COC(=O)c1cccc(COc2c(-c3ccc(OCCOCCOCCn4cc(CCCOc5ccc(-c6cc(=O)c7ccc(F)cc7o6)cc5)nn4)cc3)oc3ccccc3c2=O)c1 | > 100 |
| Cc1ccc2oc(-c3ccc(OCCCCc4cn(CCOCCOCCOc5ccc6c(=O)cc(-c7ccccc7)oc6c5)nn4)cc3)cc(=O)c2c1 | > 100 |
| COC(=O)c1cccc(COc2c(-c3ccc(OCCOCCn4cc(CCCOc5ccc6c(=O)cc(-c7ccccc7)oc6c5)nn4)cc3)oc3ccccc3c2=O)c1 | > 100 |
| Cc1ccc2oc(-c3ccc(OCCCCc4cn(CCOCCOCCOc5ccc(-c6oc7ccccc7c(=O)c6OCc6ccccc6)cc5)nn4)cc3)cc(=O)c2c1 | > 100 |
| COC(=O)c1cccc(COc2c(-c3ccc(OCCOCCn4cc(CCCCOc5ccc6c(=O)cc(-c7ccccc7)oc6c5)nn4)cc3)oc3ccccc3c2=O)c1 | > 100 |
| COC(=O)c1cccc(COc2c(-c3ccc(OCCOCCn4cc(-c5ccc(-c6cn(CCOCCOc7ccc(-c8oc9ccccc9c(=O)c8OCc8cccc(C(=O)OC)c8)cc7)nn6)cc5)nn4)cc3)oc3ccccc3c2=O)c1 | > 100 |
| O=c1cc(-c2ccccc2)oc2cc(OCCCc3cn(CCOCCOCCOc4ccc5c(=O)cc(-c6ccccc6)oc5c4)nn3)ccc12 | > 50 |
| COC(=O)c1cccc(COc2c(-c3ccc(OCCOCCOCCn4cc(COCCOc5ccc6c(=O)cc(-c7ccccc7)oc6c5)nn4)cc3)oc3ccccc3c2=O)c1 | > 100 |
| COC(=O)c1cccc(COc2c(-c3ccc(OCCOCCOCCn4cc(CN5CCN(Cc6cn(CCOCCOCCOc7ccc(-c8oc9ccccc9c(=O)c8OCc8cccc(C(=O)OC)c8)cc7)nn6)CC5)nn4)cc3)oc3ccccc3c2=O)c1 | > 100 |
| Cc1ccc2oc(-c3ccc(OCCOCCOCCn4cc(CN(CCOc5ccc6c(=O)cc(-c7ccccc7)oc6c5)Cc5ccccc5)nn4)cc3)cc(=O)c2c1 | > 100 |
| COC(=O)c1cccc(COc2c(-c3ccc(OCCOCCOCCn4cc(CCCCOc5ccc6c(=O)cc(-c7ccccc7)oc6c5)nn4)cc3)oc3ccccc3c2=O)c1 | > 100 |

| Compound | IC50 [µM] |
| --- | --- |
| Cc1ccc2oc(-c3ccc(OCCOCCOCCn4cc(CCCCOc5ccc6c(=O)cc(-c7ccccc7)oc6c5)nn4)cc3)cc(=O)c2c1 | > 50 |
| O=c1cc(-c2ccccc2)oc2cc(OCCCCc3cn(CCOCCOc4ccc(-c5cc(=O)c6cc(F)ccc6o5)cc4)nn3)ccc12 | > 100 |
| O=c1cc(-c2ccccc2)oc2cc(OCCCCc3cn(CCOCCOc4ccc5c(=O)cc(-c6ccccc6)oc5c4)nn3)ccc12 | > 100 |
| COC(=O)c1cccc(COc2c(-c3ccc(OCCOCCn4cc(COCCOc5ccc6c(=O)cc(-c7ccccc7)oc6c5)nn4)cc3)oc3ccccc3c2=O)c1 | > 100 |
| O=c1cc(-c2ccccc2)oc2cc(OCCOCCOCCn3cc(CN(CCOc4ccc5c(=O)cc(-c6ccccc6)oc5c4)Cc4ccccc4)nn3)ccc12 | > 100 |
| O=c1cc(-c2ccccc2)oc2cc(OCCCCc3cn(CCOCCOCCOc4ccc5c(=O)cc(-c6ccccc6)oc5c4)nn3)ccc12 | > 100 |
| Cc1ccc2oc(-c3ccc(OCCCCc4cn(CCOCCOCCOc5ccc(-c6cc(=O)c7ccccc7o6)cc5)nn4)cc3)cc(=O)c2c1 | > 50 |
| O=c1cc(-c2ccccc2)oc2cc(OCCOCCOCCn3cc(CN(Cc4ccccc4)Cc4cn(CCOCCOCCOc5ccc6c(=O)cc(-c7ccccc7)oc6c5)nn4)nn3)ccc12 | > 100 |
| Cc1ccc2oc(-c3ccc(OCCOCCOCCn4cc(CN(Cc5ccccc5)Cc5cn(CCOCCOCCOc6ccc(-c7cc(=O)c8cc(C)ccc8o7)cc6)nn5)nn4)cc3)cc(=O)c2c1 | > 100 |
| Cc1ccc2oc(-c3ccc(OCCCCc4cn(CCN(CCOc5ccc6c(=O)cc(-c7ccccc7)oc6c5)Cc5ccccc5)nn4)cc3)cc(=O)c2c1 | > 100 |
| OCCOCCn1cc(CN(Cc2ccccc2)Cc2cn(CCOCCO)nn2)nn1 | > 100 |
| O=c1cc(-c2ccccc2)oc2cc(OCCCCc3cn(CCOCCOc4ccc(-c5oc6ccccc6c(=O)c5OCc5ccccc5)cc4)nn3)ccc12 | > 100 |
| Cc1ccc2oc(-c3ccc(OCCOCCOCCOCCOCCOc4ccc(-c5cc(=O)c6cc(C)ccc6o5)cc4)cc3)cc(=O)c2c1 | > 100 |
| O=c1cc(-c2ccccc2)oc2cc(OCCn3cc(CN(Cc4ccccc4)Cc4cn(CCOc5ccc6c(=O)cc(-c7ccccc7)oc6c5)nn4)nn3)ccc12 | > 100 |
| O=c1cc(-c2ccccc2)oc2cc(OCCOCc3cn(CCOCCOc4ccc(-c5cc(=O)c6cc(F)ccc6o5)cc4)nn3)ccc12 | > 100 |
| COC(=O)c1cccc(COc2c(-c3ccc(OCCOCCn4cc(CN(C)CCN(C)Cc5cn(CCOCCOc6ccc(-c7oc8ccccc8c(=O)c7OCc7cccc(C(=O)OC)c7)cc6)nn5)nn4)cc3)oc3ccccc3c2=O)c1 | > 100 |
| COC(=O)c1cccc(COc2c(-c3ccc(OCCOCCn4cc(CCCOc5ccc(-c6cc(=O)c7ccc(F)cc7o6)cc5)nn4)cc3)oc3ccccc3c2=O)c1 | > 100 |
| O=c1cc(-c2ccccc2)oc2cc(OCCCCc3cn(CCOCCOCCOc4ccc(-c5cc(=O)c6cc(F)ccc6o5)cc4)nn3)ccc12 | > 100 |
| COC(=O)c1cccc(COc2c(-c3ccc(OCCOCCn4cc(CN5CCN(Cc6cn(CCOCCOc7ccc(-c8oc9ccccc9c(=O)c8OCc8cccc(C(=O)OC)c8)cc7)nn6)CC5)nn4)cc3)oc3ccccc3c2=O)c1 | > 100 |
